Test results reported in patent publication US20010047099A1, “4-aminopicolinates and their use as herbicides” (priority 2000, published 2001).
Read-outs that look alike come from different tables or passages of the source.

What was measured:
Type in all cases: in vivo
[1] = test system: chickweed (Stellaria media); assay: Postemergence herbicidal activity; conditions: for inhibition at 125 ppm / pest or weed control at 125 ppm / pest or weed control at 250 ppm: Stellaria media, post-emergence, 336 h; for inhibition at 125 ppm: Table 2, read-out: POSTMERGENCE HERBICIDAL ACTIVITY % CONTROL STEME; for pest or weed control at 125 ppm / pest or weed control at 250 ppm: read-out: Post-emergent % Control STEME
Method in brief: (§1)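 Spray rate conversion: 1 ppm ≈ 1 g/Ha. The test used greenhouse seedlings (first/second true leaf) treated with a serially diluted compound spray. Control plants received carrier only. Efficacy was taken as visual injury at 2 weeks on a 0–100% scale.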

[2] = test system: cocklebur (Xanthium strumarium); assay: Postemergence herbicidal activity; conditions: Xanthium strumarium, post-emergence, 336 h; for inhibition at 125 ppm: Table 2, read-out: POSTMERGENCE HERBICIDAL ACTIVITY % CONTROL XANST; for pest or weed control at 125 ppm / pest or weed control at 250 ppm: read-out: Post-emergent % Control XANST; for pest or weed control at 250 ppm: rate 250 ppm
Method in brief: as §1

[3] = test system: giant foxtail (Setaria faberi); assay: Postemergence herbicidal activity; conditions: post-emergence, 336 h
Method in brief: as §1

[4] = test system: pigweed (Amaranthus retroflexus); assay: Postemergence herbicidal activity; conditions: Amaranthus retroflexus, post-emergence, 336 h, Table 2, rate 125 ppm, after 2 weeks, read-out: POSTMERGENCE HERBICIDAL ACTIVITY % CONTROL AMARE
Method in brief: as §1

[5] = test system: viola (Viola tricolor); assay: Postemergence herbicidal activity; conditions: post-emergence, 336 h
Method in brief: as §1

[6] = test system: wild buckwheat (Polygonum convolvulus); assay: Postemergence herbicidal activity; conditions: for inhibition at 125 ppm / pest or weed control at 125 ppm / pest or weed control at 250 ppm: Fallopia convolvulus, post-emergence, 336 h; for inhibition at 125 ppm: Table 2, read-out: POSTMERGENCE HERBICIDAL ACTIVITY % CONTROL POLCO; for pest or weed control at 125 ppm / pest or weed control at 250 ppm: read-out: Post-emergent % Control POLCO
Method in brief: as §1

[7] = test system: wild oats (Avena fatua); assay: Postemergence herbicidal activity; conditions: post-emergence, 336 h
Method in brief: as §1

[8] = test system: morningglory (Ipomoea hederacea); assay: Preemergence herbicidal activity; conditions: Ipomoea, 504 h, read-out: % Control IPOHE; for pest or weed control at 560 ppm: rate 560 ppm
Method in brief: (§2)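 Percent injury or lack of germination was judged by eye against untreated pots at 3 weeks, where 100 means complete kill. Before emergence, seeded 70:30 loam-sand soil received a surface spray of compound in water with 0.1% Tween 155 (acetone/DMSO carrier); greenhouse 15 h photoperiod, about 22-29° C.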

[9] = test system: pigweed (Amaranthus retroflexus); assay: Preemergence herbicidal activity; conditions: Amaranthus retroflexus, 504 h; for pest or weed control at 280 ppm / pest or weed control at 560 ppm: read-out: % Control AMARE; for inhibition at 35 g/ha: pre-emergence, Table 7, rate 35 g/Ha; for pest or weed control at 560 ppm: rate 560 ppm
Method in brief: as §2

[10] = test system: velvetleaf (Abutilon theophrasti); assay: Preemergence herbicidal activity; conditions: Abutilon theophrasti, 504 h; for pest or weed control at 280 ppm / pest or weed control at 560 ppm: read-out: % Control ABUTH; for inhibition at 35 g/ha: pre-emergence, Table 7, rate 35 g/Ha; for pest or weed control at 560 ppm: rate 560 ppm
Method in brief: as §2

[11] = Table 1, rate 250 ppm, visual, after 2 weeks
[12] = Table 2, rate 125 ppm, after 2 weeks, read-out: POSTMERGENCE HERBICIDAL ACTIVITY % CONTROL SETFA
[13] = Table 2, rate 125 ppm, after 2 weeks, read-out: POSTMERGENCE HERBICIDAL ACTIVITY % CONTROL VIOTR
[14] = Table 2, rate 125 ppm, after 2 weeks, read-out: POSTMERGENCE HERBICIDAL ACTIVITY % CONTROL AVEFA
[15] = Table 6 (headed Post-emergent; text: preemergence), after 3 weeks
[16] = after 3 weeks, read-out: PREEMERGENCE HERBICIDAL ACTIVITY % CONTROL AMARE
[17] = after 3 weeks, read-out: PREEMERGENCE HERBICIDAL ACTIVITY % CONTROL ABUTH
[18] = Table 1, rate 125 ppm, visual, after 2 weeks
[19] = Table 6 (headed Post-emergent; text: preemergence), rate 280 ppm, after 3 weeks

Row | Structure (SMILES) | pest or weed control at 250 ppm [1, 11] [%] | inhibition at 125 ppm ([1]; rate 125 ppm, after 2 weeks) [%] | pest or weed control at 250 ppm ([2]; Table 1, visual, after 2 weeks) [%] | inhibition at 125 ppm ([2]; rate 125 ppm, after 2 weeks) [%] | inhibition at 125 ppm [3, 12] [%] | inhibition at 125 ppm [4] [%] | inhibition at 125 ppm [5, 13] [%] | pest or weed control at 250 ppm [6, 11] [%] | inhibition at 125 ppm ([6]; rate 125 ppm, after 2 weeks) [%] | inhibition at 125 ppm [7, 14] [%] | pest or weed control at 560 ppm [8, 15] [%] | pest or weed control at 560 ppm [9, 15] [%] | inhibition at 35 g/ha [9, 16] [%] | pest or weed control at 560 ppm [10, 15] [%] | inhibition at 35 g/ha [10, 17] [%] | pest or weed control at 125 ppm [1, 18] [%] | pest or weed control at 125 ppm [2, 18] [%] | pest or weed control at 125 ppm [6, 18] [%] | pest or weed control at 280 ppm [8, 19] [%] | pest or weed control at 280 ppm [9, 19] [%] | other results
1 | Nc1cc(Cl)nc(C(=O)O)c1Cl [Compound 1, 4-Amino-3,6-dichloropyridine-2-carboxylic acid] | – | – | – | – | – | – | – | – | – | – | – | – | – | – | – | – | – | – | – | – | inhibition at 125 ppm ([1]; read-out: PO[…] % CONTROL STEME, rate 125 ppm, after 2 weeks): 90%; pest or weed control at 125 ppm [1]: 100%; inhibition at 125 ppm ([2]; read-out: PO[…] % CONTROL XANST, rate 125 ppm, after 2 weeks): 100%; pest or weed control at 125 ppm [2]: 95%; inhibition at 125 ppm ([3]; read-out: PO[…] % CONTROL SETFA, Table 2, rate 125 ppm, after 2 weeks, read-out: POSTMERGENCE HERBICIDAL ACTIVITY % CONTROL SETFA): 75%; inhibition at 125 ppm ([4]; read-out: PO[…] % CONTROL AMARE): 95%; inhibition at 125 ppm ([5]; read-out: PO[…] % CONTROL VIOTR, Table 2, rate 125 ppm, after 2 weeks, read-out: POSTMERGENCE HERBICIDAL ACTIVITY % CONTROL VIOTR): 80%; inhibition at 125 ppm ([6]; read-out: PO[…] % CONTROL POLCO, rate 125 ppm, after 2 weeks): 100%; pest or weed control at 125 ppm [6]: 100%; inhibition at 125 ppm ([7]; read-out: PO[…] % CONTROL AVEFA, Table 2, rate 125 ppm, after 2 weeks, read-out: POSTMERGENCE HERBICIDAL ACTIVITY % CONTROL AVEFA): 50%; pest or weed control at 280 ppm [8]: 100%; pest or weed control at 280 ppm [9]: 100%; inhibition at 35 g/ha ([9]; read-out: PR[…] % CONTROL AMARE, after 3 weeks): 88%; pest or weed control at 280 ppm [10]: 100%; inhibition at 35 g/ha ([10]; read-out: PR[…] % CONTROL ABUTH, after 3 weeks): 95%
2 | Nc1cc(Br)nc(C(=O)O)c1Cl [Compound 14, 4-Amino-6-bromo-3-chloropyridine-2-carboxylic acid] | 90 | 65 | 85 | 100 | 65 | 90 | 75 | 50 | 100 | 40 | 100 | 90 | 100 | 100 | 100 | – | – | – | – | – | Post-emergent Evaluation - % control STEME ([1]; Table 5, rate 250 ppm): 70%; Post-emergent Evaluation - % control POLCO ([6]; Table 5, rate 250 ppm): 90%
3 | Nc1c(F)c(Cl)nc(C(=O)O)c1Cl [Compound 19, 4-Amino-3,6-dichloro-5-fluoropyridine-2-carboxylic acid] | – | 60 | – | 95 | 20 | 60 | 50 | – | 100 | 20 | 100 | 100 | – | 100 | – | 95 | 95 | 100 | – | – | –
4 | COc1c(C(=O)O)nc(Br)c(Cl)c1N [Compound 42, 4-Amino-6-bromo-5-chloro-3-methoxypyridine-2-carboxylic acid] | 90 | – | 85 | – | – | – | – | 90 | – | – | 100 | 100 | 60 | 100 | 80 | – | – | – | – | – | –
5 | COC(=O)c1nc(Cl)cc(N)c1Cl [Compound 3, methyl 4-amino-3,6-dichloropyridine-2-carboxylate] | – | – | – | – | – | – | – | – | – | – | – | – | 90 | – | 95 | 100 | 100 | 100 | 100 | 100 | pest or weed control at 280 ppm [10, 19]: 100%
6 | CCOC(=O)c1nc(Cl)cc(N)c1Cl [Compound 4, ethyl 4-amino-3,6-dichloropyridine-2-carboxylate] | – | 70 | – | 100 | 75 | 100 | 70 | – | 100 | 40 | – | – | – | – | – | 100 | 100 | 100 | 100 | 100 | pest or weed control at 280 ppm [10, 19]: 100%
